Assay results as given in ChEMBL document CHEMBL1136496, “Synthesis and evaluation of optically pure dioxolanes as inhibitors of hepatitis C virus RNA replication” (Bioorg Med Chem Lett, 2003).

Test system: Nucleic Acid
Assay: Concentration required to inhibit HCV RNA replication was determined
Assay type: functional, Hepacivirus hominis

Row | SMILES | EC50 [µM]
1 | Nc1nc(O)c2ccn([C@H]3CO[C@@H](CO)O3)c2n1 | > 50
2 | C[C@H]1O[C@@H](CO)O[C@H]1n1ccc2c(O)nc(N)nc21 | > 50
3 | C[C@H]1O[C@@H](CO)O[C@@H]1n1ccc2c(N)ncnc21 | > 50

Second part, the compound after the results:

Row | EC50 [µM] | SMILES
4 | > 50 | Nc1ncnc2c1ccn2[C@H]1CO[C@@H](CO)O1
5 | > 50 | Nc1ncnc2c1ccn2[C@@H]1CO[C@@H](CO)O1
6 | > 50 | C[C@H]1O[C@@H](CO)O[C@H]1n1ccc2c(N)ncnc21
